Test results from patent US12616203B2, “Use of 3-isoxazolidinones compounds as selective herbicides” (FMC Corporation, priority 2014, dated 2026).

Legend:
[1] = test system: weeds; canola, and wheat; experiment: Ex39 PRE greenhouse; type: in vivo; conditions: weed and rate in the words
From the text: (§1) Thereafter flats were watered and fertilized routinely.

[2] = test system: Quackgrass; experiment: Ex32 PRE 2,4-DC + pyroxasulfone + sulfentrazone, % control 28 DAT, Colby; type: in vivo, Elymus repens
From the text: Treatments were applied at the time of planting to Italian ryegrass, green foxtail, littleseed canarygrass, wild oat, quackgrass, dandelion, common chickweed, white clover, yellow nutsedge, redroot pigweed, field bindweed, canola, and wheat. […] Flats were watered and fertilized routinely after treatment application.

[3] = test system: weeds; experiment: Ex20 PRE greenhouse; type: in vivo; conditions: weed and rate in the words
From the text: Herbicides: • 2,4 DC-21 (36.7% CS): 125, 170, 210, or 250 g ai/ha alone and as tank-mix with dimethenamid-P • Dimethanamid-P (Outlook, 63.9%): 250, 375, 500 g ai/ha in combination with 2,4 DC and alone, additional treatment alone at 750 g ai/ha. • Metazachlor (Butisan 43.1%): 500 g ai/ha
Herbicides included as standards for comparison were metazachlor plus dimethenamid-P (500 g) as tank mix combination. […] Treatments were replicated 3 times. […] Thereafter flats were watered and fertilized routinely.

[4] = test system: weeds; experiment: Ex16 PRE greenhouse; type: in vivo; conditions: weed and rate in the words
From the text: To determine PRE efficacy, five levels of 2,4 DC (36.7% CS) 0, 125, 170, 210, or 250 g ai/ha and five levels of pyroxasulfone (KIH485-85WG) 0, 50, 65, 80, or 95 g ai/ha were applied either alone or as tank-mix. Additional treatments consisted of premix of pyroxasulfone plus fluthiacet-methyl (Anthem™ 23.3%) at 169.9 g ai/ha, S-metolachlor (Dual II Magnum, 82.4%) at 1388 g, and tank-mix of mesotrione (Callisto, 40%) at 123 g plus S-metolachlor at 1252 g. […] Treatments were applied before the emergence of black nightshade, giant foxtail, green foxtail, yellow foxtail, large crabgrass, kochia, redroot pigweed, common ragweed, and barnyardgrass.
Flats were watered and fertilized routinely after treatment application. Each treatment was replicated three times.

[5] = test system: Velvetleaf; experiment: Ex33 PRE 2,4-DC + fluthiacet-methyl + pyroxasulfone, % control 28 DAT, Colby; type: in vivo, Abutilon theophrasti
From the text: ANTHEM® (fluthiacet-methyl, 0.69% plus pyroxasulfone, 22.61%) was included as a standard at labeled rate, Fluthiacet-methyl at 4.9 g ai/ha and pyroxasulfone at 165 g ai/ha. […] The following weeds were screened, Palmer amaranth, Pennsylvania smartweed, velvetleaf, green foxtail, morningglory, Italian ryegrass, prickly sida, and yellow nutsedge. Crops screened were cotton, lentil, mung bean, bush bean, and cowpea. […] Thereafter flats were watered and fertilized routinely.

[6] = test system: sedges; experiment: Ex26 PRE greenhouse; type: in vivo; conditions: 28 DAT, weed and rate in the words
From the text: Treatments were applied at the time of planting to yellow nutsedge, purple nutsedge, and benghal dayflower. […] Flats were watered and fertilized routinely after treatment application.

[7] = test system: weeds; experiment: Ex18 PRE greenhouse; type: in vivo; conditions: weed and rate in the words
[8] = test system: Common lambsquarters; experiment: Ex34 PRE 2,4-DC + napropamide, % control, Colby; type: in vivo, Chenopodium album; conditions: 28 DAT
From the text: as §1

[9] = test system: Blackgrass; experiment: Ex34 PRE 2,4-DC + napropamide, % control, Colby; type: in vivo, Alopecurus myosuroides; conditions: 28 DAT
From the text: as §1

[10] = test system: Morningglory sp.; experiment: Ex38 PRE 2,4-DC + pyroxasulfone, % control 28 DAT, Colby; type: in vivo, Ipomea spp
From the text: Pyroxasulfone plus fluthiacet-methyl (ANTHEM™, 23.3%) applied at 165 g ai/ha was included as a standard for comparison. […] Thereafter flats were watered and fertilized routinely.

[11] = test system: Ivyleaf morningglory; experiment: Ex17 PRE 2,4 DC + isoxaflutole, % control 28 DAT, Colby; type: in vivo, Ipomoea hederacea
Experimental: In this example a study was conducted to determine weed efficacy and sugarcane injury when 2,4 DC or isoxaflutole are applied either alone or tank-mix as preemergence against the weeds: Ivyleaf morningglory (Ipomoea hederacea, IPOHE), hairy beggartickss (Bidens pilosa, BIDPI), yellow nutsedge (Cyperus esculentus, CYPES), large crabgrass (Digitaria sanguinalis, DIGSA), and redroot pigweed (Amaranthus retroflexus, AMARE). The crop tested in this study was Sugarcane (var. CTC 20).
To determine weed efficacy and sugarcane selectivity, 2,4 DC (SC 36%) and isoxaflutole (Balance Flexx®, 20%) were applied PRE either alone or as tank-mix partners at rates mentioned below. 2,4 DC was applied at 500, 750, and 1000 g ai/ha while isoxaflutole was applied at 80, 100, and 120 g ai/ha. […] Treatments were applied PRE to sugarcane (var. CTC 20), ivyleaf morningglory, hairy beggarticks, yellow nutsedge, large crabgrass, and redroot pigweed. […] Soil was watered before application and watered lightly after application. Flats were watered and fertilized routinely after treatment application.

[12] = test system: weeds; barley and wheat; experiment: Ex40 POST greenhouse; type: in vivo; conditions: rate in the words
Experimental: Treatments were applied to barley and wheat crops.
Non-ionic surfactant (NIS) was added to all treatments at 0.5% v/v. All plant species were direct seeded into 3″ plastic pots using metro-mix as growth media. At treatment common lambsquarters was 1.75″, common chickweed was 2″, wild mustard was 2.25″, wild oat was 5.5″, wild buckwheat was 2-5″, Italian ryegrass was 2-3″, wheat was 5.5″ and barley was 4.5″ in height. Plants were watered well before application and not watered 24 h after application. Plants were watered and fertilized routinely after treatment application. Each treatment was replicated four times. Treated flats were placed in randomized block design in the greenhouse.

Structure (SMILES): CC1(C)CON(Cc2ccc(Cl)cc2Cl)C1=O [2,4-DC, 2-(2,4-dichlorophenyl)methyl-4,4-dimethyl-3-isoxazolidinone]
- weed control in words [1]: alone at ≥50 g ai/ha controlled (≥85%) Canada thistle, dandelion, or common chickweed
- X ([2]; 2,4-DC alone 50 g ai/ha): 0%
- X ([2]; 2,4-DC alone 100 g ai/ha): 7%
- X ([2]; 2,4-DC alone 200 g ai/ha): 10%
- weed control in words [3]: applied alone at 125 g ai/ha controlled (≥85% injury) Canada thistle, giant foxtail, goosegrass, and common chickweed
- weed control in words [4]: alone controlled kochia at 210 g ai/ha, barnyardgrass and large crabgrass at 125 g, giant foxtail and green foxtail at 170 g
- X ([5]; 2,4-DC alone 31 g ai/ha): 7%
- X ([5]; 2,4-DC alone 63 g ai/ha): 23%
- X ([5]; 2,4-DC alone 125 g ai/ha): 27%
- X ([5]; 2,4-DC alone 250 g ai/ha): 30%
- X ([5]; 2,4-DC alone 375 g ai/ha): 89%
- weed control in words [6]: alone did not provide control of sedges at any rate except benghal dayflower at 400 g
- weed control in words [7]: controlled goosegrass at ≥170 g ai/ha
- X ([8]; 2,4-DC alone 31 g ai/ha): 28%
- X ([8]; 2,4-DC alone 63 g ai/ha): 43%
- X ([8]; 2,4-DC alone 125 g ai/ha): 85%
- X ([8]; 2,4-DC alone 250 g ai/ha): 91%
- X ([8]; 2,4-DC alone 375 g ai/ha): 93%
- X ([9]; 2,4-DC alone 31 g ai/ha): 10%
- X ([9]; 2,4-DC alone 63 g ai/ha): 18%
- X ([9]; 2,4-DC alone 125 g ai/ha): 84%
- X ([9]; 2,4-DC alone 250 g ai/ha): 93%
- X ([9]; 2,4-DC alone 375 g ai/ha): 97%
- X (% control, 2,4-DC alone) ([10]; PRE, 2,4-DC 50 g ai/ha): 0%
- X (% control, 2,4-DC alone) ([10]; PRE, 2,4-DC 100 g ai/ha): 2%
- X (% control, 2,4-DC alone) ([10]; PRE, 2,4-DC 200 g ai/ha): 2%
- X ([11]; 2,4-DC alone 500 g ai/ha): 67%
- X ([11]; 2,4-DC alone 750 g ai/ha): 78%
- X ([11]; 2,4-DC alone 1000 g ai/ha): 88%
- weed control / crop safety in words [12]: applied alone was safe at all rates on both wheat and barley
